Patent US11584734B2, “Tricyclic compounds as histone methyltransferase inhibitors” (GLOBAL BLOOD THERAPEUTICS, INC., priority 2017, dated 2023)

Biological target: T1, G9a (Homo sapiens, UniProt Q96KQ7)
T1 sequence (Q96KQ7 1-1210): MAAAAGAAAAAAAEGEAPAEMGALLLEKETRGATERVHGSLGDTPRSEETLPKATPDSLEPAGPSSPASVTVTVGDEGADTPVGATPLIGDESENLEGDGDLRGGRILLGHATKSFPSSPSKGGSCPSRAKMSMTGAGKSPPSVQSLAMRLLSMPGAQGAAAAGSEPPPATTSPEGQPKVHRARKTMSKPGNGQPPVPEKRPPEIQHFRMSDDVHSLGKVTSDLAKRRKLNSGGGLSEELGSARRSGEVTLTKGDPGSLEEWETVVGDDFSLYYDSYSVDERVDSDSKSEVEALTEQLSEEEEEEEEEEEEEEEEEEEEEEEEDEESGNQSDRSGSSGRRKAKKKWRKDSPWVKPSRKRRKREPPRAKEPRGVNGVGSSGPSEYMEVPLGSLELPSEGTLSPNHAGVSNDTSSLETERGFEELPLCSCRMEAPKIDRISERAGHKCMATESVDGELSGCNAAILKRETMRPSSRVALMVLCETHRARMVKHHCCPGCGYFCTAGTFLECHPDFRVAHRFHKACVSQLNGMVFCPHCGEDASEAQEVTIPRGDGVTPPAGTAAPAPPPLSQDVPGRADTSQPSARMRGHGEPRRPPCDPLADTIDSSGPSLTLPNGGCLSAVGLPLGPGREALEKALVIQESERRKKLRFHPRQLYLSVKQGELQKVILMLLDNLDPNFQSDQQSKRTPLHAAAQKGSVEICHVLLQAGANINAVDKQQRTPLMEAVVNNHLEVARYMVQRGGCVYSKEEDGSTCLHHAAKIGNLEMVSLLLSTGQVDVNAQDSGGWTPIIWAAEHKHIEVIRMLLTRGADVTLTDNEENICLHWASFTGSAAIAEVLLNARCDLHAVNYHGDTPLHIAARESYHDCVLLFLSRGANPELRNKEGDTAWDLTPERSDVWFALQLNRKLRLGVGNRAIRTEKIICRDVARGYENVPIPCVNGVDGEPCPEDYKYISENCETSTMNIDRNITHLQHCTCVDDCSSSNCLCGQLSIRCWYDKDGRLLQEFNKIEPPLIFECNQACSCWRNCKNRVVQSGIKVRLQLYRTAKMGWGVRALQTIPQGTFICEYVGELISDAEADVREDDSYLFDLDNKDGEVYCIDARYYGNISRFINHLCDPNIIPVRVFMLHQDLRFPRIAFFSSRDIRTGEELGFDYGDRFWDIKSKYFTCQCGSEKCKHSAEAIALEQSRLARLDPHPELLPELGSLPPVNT
Experiment: G9a AlphaLISA enzymatic activity assay
Assay type: biochemical
Conditions: negative log of IC50 in molar, 0.15 nM G9a, 15 uM S-adenosyl-methionine, 100 nM biotinylated histone 3 peptide (1-21)
Description: The G9a AlphaLISA assay was used to detect the methyl modifications of a biotinylated histone H3 peptide by the compounds. These modifications are done by the histone methyl transferase activity of the G9a enzyme. The assay consists of reading a chemiluminescent signal at 615 nm; this signal is generated by a laser excitation at 680 nm that transfers a reactive singlet oxygen between the donor beads and acceptor beads. Donor beads are streptavidin conjugated and bind to the biotin on the peptide. Acceptor beads are conjugated with an antibody that recognizes the specific G9a methyl mark on the peptide. If there is a methyl mark on the peptide, the acceptor beads will bind to the peptide. Upon binding, the acceptor beads will be in close proximity (<200 nm) of the donor beads and when the donor beads are excited, the transfer of the oxygen can occur and a strong signal will be generated. If there is no methyl mark, the interaction between beads will not occur and signal will be at background levels.
For the assay, the following buffer was used to set up reactions: 50 mM Tris-HCl pH9, 50 mM NaCl, 0.01% Tween-20 and 1 mM DTT (added fresh prior to starting the reactions). […] The reaction is incubated at rt for 1 hour and subsequently quenched by the addition of the acceptor beads (anti-H3k9me2 AlphaLISA acceptor beads, PerkinElmer #AL117) at a final concentration of 20 ug/mL. The acceptor beads are incubated for 1 hour. After 1 hour, the donor beads are added at a final concentration of 20 ug/mL (Alpha Streptavidin donor beads, PerkinElmer #6760002). Donor beads are incubated for 0.5 hours. Both donor and acceptor beads are resuspended in AlphaLISA 5X Epigenetics Buffer 1 Kit (PerkinElmer #AL008) prior to addition to the reaction. All manipulations and incubations with the donor and acceptor beads are done in subdued light. Signal is detected in an EnVision plate reader in Alpha mode. See ACS Med Chem Lett. 2014; 5(2):205-9.
Percent inhibition was calculated for each compound dilution and the concentration that produced 50% inhibition was calculated. This value is presented as the pIC50, which is the negative log of the IC50 value in molar.

| SMILES | IC50 |
| --- | --- |
| CCOCCCNc1c2c(nc3cc(OCCCN4CCCC4)c(OC)cc13)CCC2 [Example 11, N-(3-ethoxypropyl)-7-methoxy-6-[3-(pyrrolidin-1-yl)propoxy]-1H,2H,3H-cyclopenta[b]quinolin-9-amine] | 0.0174 µM |
| CNc1c2c(nc3cc(OCCCN4CCCC4)c(OC)cc13)CCCCC2 [Example 19, 2-methoxy-N-methyl-3-[3-(pyrrolidin-1-yl)propoxy]-6H,7H,8H,9H,10H-cyclohepta[b]quinolin-11-amine] | 0.00794 µM |
| CCCOCCNc1c2c(nc3cc(OCCCN4CCCC4)c(OC)cc13)CCC2 [Example 16, 7-methoxy-N-(2-propoxyethyl)-6-[3-(pyrrolidin-1-yl)propoxy]-1H,2H,3H-cyclopenta[b]quinolin-9-amine] | 0.0372 µM |
| COc1cc2c(NC[C@H]3COCCO3)c3c(nc2cc1OCCCN1CCCC1)CCC3 [Example 27, N-{[(2S)-1,4-dioxan-2-yl]methyl}-7-methoxy-6-[3-(pyrrolidin-1-yl)propoxy]-1H,2H,3H-cyclopenta[b]quinolin-9-amine] | 0.0126 µM |
| CCCOCCCNc1c2c(nc3cc(OCCCN4CCCC4)c(OC)cc13)CCC2 [Example 12, 7-methoxy-N-(3-propoxypropyl)-6-[3-(pyrrolidin-1-yl)propoxy]-1H,2H,3H-cyclopenta[b]quinolin-9-amine] | 0.00832 µM |
| COc1cc2c(NC(C)C)c3c(nc2cc1OCCCN1CCCC1)CC(C)(C)C3 [Example 7, 7-methoxy-2,2-dimethyl-N-(propan-2-yl)-6-[3-(pyrrolidin-1-yl)propoxy]-1H,2H,3H-cyclopenta[b]quinolin-9-amine] | 0.0309 µM |
| COCCNc1c2c(nc3cc(OCCCN4CCCC4)c(OC)cc13)CC(C)(C)C2 [Example 8, 7-methoxy-N-(2-methoxyethyl)-2,2-dimethyl-6-[3-(pyrrolidin-1-yl)propoxy]-1H,2H,3H-cyclopenta[b]quinolin-9-amine] | 0.0513 µM |

Results, then the compound that gave them:

| IC50 | SMILES |
| --- | --- |
| 0.0049 µM | COc1cc2c(NC3CCN(C(C)C)CC3)c3c(nc2cc1OCCCN(C)C)CCC3 [Example 70, N-{6-[3-(dimethylamino)propoxy]-7-methoxy-1H,2H,3H-cyclopenta[b]quinolin-9-yl}-1-(propan-2-yl)piperidin-4-amine] |
| 1.95 µM | COc1cc2c(NCC3CC3)c3c(nc2cc1OCCCNS(N)(=O)=O)CCC3 [Example 72, N-[3-({9-[(cyclopropylmethyl)amino]-7-methoxy-1H,2H,3H-cyclopenta[b]quinolin-6-yl}oxy)propyl]aminosulfonamide] |
| 0.0525 µM | CCNc1c2c(nc3cc(OCCCN4CC[C@@H](OC)C4)c(OC)cc13)CCC2 [Example 75, N-ethyl-7-methoxy-6-{3-[(3R)-3-methoxypyrrolidin-1-yl]propoxy}-1H,2H,3H-cyclopenta[b]quinolin-9-amine] |
| 0.933 µM | CNc1c2c(nc3cc(OCCCNS(C)(=O)=O)c(OC)cc13)CCC2 [Example 62, N-(3-{[7-methoxy-9-(methylamino)-1H,2H,3H-cyclopenta[b]quinolin-6-yl]oxy}propyl)methanesulfonamide] |
| 0.437 µM | CCN(CC)CCOCCOc1cc2nc3c(c(NC(C)C)c2cc1OC)CCC3 [Example 66, 6-{2-[2-(diethylamino)ethoxy]ethoxy}-7-methoxy-N-(propan-2-yl)-1H,2H,3H-cyclopenta[b]quinolin-9-amine] |
| 0.0398 µM | COCCNc1c2c(nc3cc(OCCCN4CCCC4)c(OC)cc13)C1CCCC2C1 (stereo not shown) [Example 43, 7-methoxy-N-(2-methoxyethyl)-6-[3-(pyrrolidin-1-yl)propoxy]-3-azatetracyclo[10.3.1.0^{2,11}.0^{4,9}]hexadeca-2,4,6,8,10-pentaen-10-amine] |
| 0.0631 µM | CC(C)Nc1c2c(nc3cc(OCCCN4CCCC4)c(OC(F)F)cc13)CCC2 [Example 35, 7-(difluoromethoxy)-N-(propan-2-yl)-6-[3-(pyrrolidin-1-yl)propoxy]-1H,2H,3H-cyclopenta[b]quinolin-9-amine] |
| 0.00135 µM | COc1cc2c(NCC3CNC3)c3c(nc2cc1OCCCN1CCCC1)CCC3 [Example 67, N-[(azetidin-3-yl)methyl]-7-methoxy-6-[3-(pyrrolidin-1-yl)propoxy]-1H,2H,3H-cyclopenta[b]quinolin-9-amine] |
| 0.107 µM | COCCNc1c2c(nc3cc(OCCCN4CCCC4)c(OC(F)F)cc13)CCC2 [Example 32, 7-(difluoromethoxy)-N-(2-methoxyethyl)-6-[3-(pyrrolidin-1-yl)propoxy]-1H,2H,3H-cyclopenta[b]quinolin-9-amine] |
